Where two headings read alike, the source gives them in different places.

Data set [1] is described as follows: Stability tests of (5+5) bis bortezomib tartrate III in solid form (HPLC purity). Type of data set: physicochemical. The method, then: (5+5) Bis-bortezomib tartrate III, prepared as described in example 2, and the solid formulations containing (5+5) bis-bortezomib tartrate III, prepared as described in examples 3 and 4, were put into glass vials with screw plug and hermetic closure and undergone stability tests under the following conditions: […]
temperature 25° C. and 60% relative humidity temperature 40° C. and 75% relative humidity
The HPLC method used for the purity analysis was the following:
• UV Detector: SPD 10AVP • auto-sampler: SIL-ADVP Wavelength: 270 nm Column: Biobasic-18-Peek Bio-inert • length: 250 mm • I.D.: 2.1 mm • Particle size: 5 μm • (thermo scientific Cat.N.72105-252168 or equivalent) Injection: 3 μl Column temperature: room Sampler temperature: room Flow rate: 0.3 ml/min Mobile phase: eluent A: 95% gradient • Eluent B: 5% Analysis time: 60 minutes Eluent A: 0.1% v/v formic acid in water for HPLC Eluent B: 0.1% v/v formic acid in acetonitrile for gradient Diluent: acetonitrile:water for HPLC=80:20 Blank: diluent Gradient program:
Weigh about 50 mg sample and transfer the substance into a 100 ml flask. Dissolve and bring to volume with diluent. Sonicate up to complete dissolution (analyte content about 0.5 mg/ml).
Calculate the percentage of each known and unknown impurity as percentage area by using the following formula (peaks of the blank and peaks with area <0.05% to be ignored).
[formula] Axc: peak area of the impurity in the sample Atot: total area of the peaks of the chromatogram Purity(A%)=100−Σ1Imp (i) The peak corresponding to bortezomib is eluted at 28 minutes±2.
In the following tables the data obtained from the stability tests after two and four weeks are reported.

A short description of data set [2]: Stability tests of powders stored at 40° C. for months (examples 12, 14, 17), HPLC purity. Type of data set: physicochemical. Particulars: powder. On the procedure: Samples of the powder obtained in example 11 were stored in glass vials with screw cap and hermetic closure and undergone stability tests at 40° C. and 75% relative humidity. Their purity was checked during the time. In the following table the purity data of the samples under stability test obtained by using the HPLC method described in example 9 are reported.
Samples of the powder obtained in example 13 were stored in glass vials with screw cap and hermetic closure and undergone stability tests at 40° C. and 75% relative humidity. In the following table the purity data obtained by using the HPLC method described in example 9 are reported.
In the following table the data of the HPLC purity analysis of the powder at time 0 and after 1 month, 2 months and 3 months of storage in glass vials with screw plug and hermetic closure at 40° C. are reported.

For data set [3] the following is noted: cited from earlier work.
Where [4] appears, read: 2 weeks 25° C., 60% relative humidity.
The mark [5] stands for this setting: 2 weeks 40° C., 75% relative humidity.
Setting [6] is: 1 month 40° C. (75% relative humidity stated in examples 12, 14).
Setting [7] is: 2 months 40° C. (75% relative humidity stated in examples 12, 14).
[8] abbreviates: 3 months 40° C. (75% relative humidity stated in examples 12, 14).

On to `CC(C)C[C@H](NC(=O)C(Cc1ccccc1)NC(=O)c1cnccn1)B1OC(=O)C(C2OB([C@H](CC(C)C)NC(=O)C(Cc3ccccc3)NC(=O)c3cnccn3)OC2=O)O1` (stereo partly drawn) [Example 2, (5+5) Bis-Bortezomib L-Tartrate III], for which, in data set [1] (setting [4]), the “HPLC peak area, relative retention time 0.91 (retention time 24.57 min)” value amounted to 0.02 A%; the “HPLC peak area, relative retention time 0.95 (retention time 25.78 min)” value was determined as 0.02 A%; the “HPLC peak area, relative retention time 1.07 (retention time 28.77 min)” value came to 0.01 A%; the “HPLC purity, peak at relative retention time 1.00 (retention time 27.00 min)” value is reported as 99.94 A%. In data set [1] (setting [5]), the “HPLC peak area, relative retention time 0.95 (retention time 25.78 min)” value amounted to 0.18 A%; the “HPLC peak area, relative retention time 1.07 (retention time 28.77 min)” value was determined as 0.01 A%; the “HPLC purity, peak at relative retention time 1.00 (retention time 27.00 min)” value worked out at 99.82 A%. Also, in data set [1] (t0), the “HPLC peak area, relative retention time 0.91 (retention time 24.57 min)” value is recorded as 0.02 A%; the “HPLC peak area, relative retention time 0.95 (retention time 25.78 min)” value worked out at 0.07 A%; the “HPLC peak area, relative retention time 1.07 (retention time 28.77 min)” value was found to be 0.01 A%; the “HPLC purity, peak at relative retention time 1.00 (retention time 27.00 min)” value is given as 99.90 A%.
Consider `CC(C)C[C@H](NC(=O)[C@H](Cc1ccccc1)NC(=O)c1cnccn1)B1OC(=O)[C@@H]([C@H]2OB([C@H](CC(C)C)NC(=O)[C@H](Cc3ccccc3)NC(=O)c3cnccn3)OC2=O)O1` [Example 13, (5+5) Bis Bortezomib L-Tartrate III], for which, in data set [2] (setting [6]), the “HPLC peak area, relative retention time 0.87 (retention time 23.58 min)” value worked out at 0.05 A%; the “HPLC peak area, relative retention time 1.037 (retention time 28.00 min)” value was 0.02 A%; the “HPLC purity, peak at relative retention time 1.00 (retention time 27.00 min)” value is 99.93 A%. Also, in data set [2] (setting [7]), the “HPLC peak area, relative retention time 0.87 (retention time 23.58 min)” value turned out to be 0.61 A%; the “HPLC peak area, relative retention time 0.95 (retention time 25.78 min)” value is 0.07 A%; the “HPLC peak area, relative retention time 1.037 (retention time 28.00 min)” value was 0.34 A%; the “HPLC peak area, relative retention time 1.07 (retention time 28.77 min)” value is listed as 0.13 A%. In addition, the “HPLC purity, peak at relative retention time 1.00 (retention time 27.00 min)” value in data set [2] (setting [7]) is recorded as 98.85 A%. In data set [2] (setting [8]), the “HPLC peak area, relative retention time 0.87 (retention time 23.58 min)” value was found to be 0.07 A%; the “HPLC peak area, relative retention time 0.95 (retention time 25.78 min)” value turned out to be 0.04 A%; the “HPLC peak area, relative retention time 1.037 (retention time 28.00 min)” value worked out at 0.02 A%; the “HPLC purity, peak at relative retention time 1.00 (retention time 27.00 min)” value is listed as 99.85 A%. Besides, in data set [2] (t0), the “HPLC peak area, relative retention time 0.87 (retention time 23.58 min)” value worked out at 0.02 A%; the “HPLC peak area, relative retention time 1.037 (retention time 28.00 min)” value worked out at 0.02 A%; the “HPLC purity, peak at relative retention time 1.00 (retention time 27.00 min)” value turned out to be 99.94 A%.
For the molecule `CC(C)C[C@H](NC(=O)[C@H](Cc1ccccc1)NC(=O)c1cnccn1)B(O)O` [bortezomib], the “time for which stable on storage” value in data set [3] (stored at 2-8° C.) was 3-6 months; in data set [3] (stored at −20° C.) it was “more than 2 years”. Further, the HPLC purity in data set [3] (stored at −20° C. for more than 2 years) is recorded as over 97%.
Take `CC(C)C[C@H](NC(=O)C(Cc1ccccc1)NC(=O)c1cnccn1)B1OC(=O)C(C2OB([C@H](CC(C)C)NC(=O)C(Cc3ccccc3)NC(=O)c3cnccn3)OC2=O)O1` (stereo partly drawn) [Example 11, (5+5) Bis Bortezomib L-Tartrate III]: in data set [2] (setting [7]), the “HPLC peak area, relative retention time 0.87 (retention time 23.58 min)” value is 0.15 A%; the “HPLC peak area, relative retention time 1.037 (retention time 28.00 min)” value is given as 0.02 A%; the “HPLC peak area, relative retention time 1.07 (retention time 28.77 min)” value is 0.04 A%; the “HPLC purity, peak at relative retention time 1.00 (retention time 27.00 min)” value amounted to 99.67 A%. Moreover, in data set [2] (setting [8]), the “HPLC peak area, relative retention time 0.87 (retention time 23.58 min)” value is 0.66 A%; the “HPLC peak area, relative retention time 0.95 (retention time 25.78 min)” value was found to be 0.07 A%; the “HPLC peak area, relative retention time 1.037 (retention time 28.00 min)” value is given as 0.38 A%; the “HPLC peak area, relative retention time 1.07 (retention time 28.77 min)” value amounted to 0.18 A%. The “HPLC purity, peak at relative retention time 1.00 (retention time 27.00 min)” value in data set [2] (setting [8]) stood at 98.72 A%. In data set [2] (t0), the “HPLC peak area, relative retention time 1.037 (retention time 28.00 min)” value is listed as 0.01 A% and the “HPLC purity, peak at relative retention time 1.00 (retention time 27.00 min)” value stood at 99.99 A%.

The record behind these values is patent US9206229B2, “Bortezomib esters and formulations thereof” (CHEMI S.P.A., priority 2012, dated 2015).
